From patent US9718790B2, “Triazine derivative and pharmaceutical composition having an analgesic activity comprising the same” (SHIONOGI & CO., LTD., priority 2010, dated 2017)

The compounds below were run against human P2X3 receptor (Homo sapiens (Human), UniProt P56373) (assay: Evaluation of human P2X3 receptor inhibitory activity (Fluo-3 calcium fluorescence, FDSS 3000, ATP stimulation)). Conditions: human P2X3 receptor, Test Example 1.
Assay type: cell-based
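Also: stimulus was 50 nM ATP with fluorescence followed for 3 min, and the response per well was peak post-ATP fluorescence divided by the reading at measurement start.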

human P2X3 receptor, sequence (P56373 whole entry): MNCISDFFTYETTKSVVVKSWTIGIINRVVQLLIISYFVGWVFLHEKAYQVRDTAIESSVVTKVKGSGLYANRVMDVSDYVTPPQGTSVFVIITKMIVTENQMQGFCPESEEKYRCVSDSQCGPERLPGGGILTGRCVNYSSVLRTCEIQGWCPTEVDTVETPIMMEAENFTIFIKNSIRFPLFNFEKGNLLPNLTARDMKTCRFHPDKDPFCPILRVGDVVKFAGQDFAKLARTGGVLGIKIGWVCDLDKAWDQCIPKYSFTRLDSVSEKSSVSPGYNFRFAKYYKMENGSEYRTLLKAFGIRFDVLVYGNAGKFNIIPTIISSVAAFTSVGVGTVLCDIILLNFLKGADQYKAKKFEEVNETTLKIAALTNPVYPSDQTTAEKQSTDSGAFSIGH

Structure (SMILES) | IC50
COCCn1c(=O)[nH]/c(=N\c2ccc(Oc3ccnc(C(=O)OC)c3)cc2)n(Cc2ccc(Cl)cc2)c1=O [Compound I-2536] | 0.005 µM
COCCn1c(=O)[nH]/c(=N\c2ccc(Oc3cncc(C(=O)OC)c3)cc2)n(Cc2ccc(Cl)cc2)c1=O [Compound I-2537] | 0.005 µM
COCCn1c(=O)[nH]/c(=N\c2ccc(Oc3cccc(C#N)n3)cc2)n(Cc2ccc(Cl)cc2)c1=O [Compound I-2538] | 0.003 µM
CCOC(=O)CN(C(=O)OC(C)(C)C)c1cc(Oc2ccc(/N=c3\[nH]c(=O)n(CC)c(=O)n3Cc3ccc(Cl)cc3)cc2)ccn1 [Compound I-2540] | 0.104 µM
O=c1[nH]/c(=N\c2ccc(Oc3nccs3)cc2)n(Cc2ccc(Cl)cc2)c(=O)n1C(CO)CO [Compound I-2541] | 0.118 µM
O=c1[nH]/c(=N\c2ccc(Oc3ccon3)cc2)n(Cc2ccc(Cl)cc2)c(=O)n1C(CO)CO [Compound I-2542] | 0.186 µM
O=c1[nH]/c(=N\c2ccc(Oc3ncccn3)cc2)n(Cc2ccc(Cl)cc2)c(=O)n1CCCO [Compound I-2543] | 0.01 µM
O=c1[nH]/c(=N\c2ccc(Oc3ncccn3)cc2)n(Cc2ccc(Cl)cc2)c(=O)n1CC(CO)CO [Compound I-2544] | 0.011 µM
N#Cc1ccc(Oc2ccc(/N=c3\[nH]c(=O)n(CCO)c(=O)n3Cc3ccc(Cl)cc3)cc2)cc1 [Compound I-2545] | 0.007 µM
NC(=O)c1ccc(Oc2ccc(/N=c3\[nH]c(=O)n(C[C@H](O)CO)c(=O)n3Cc3ccc(Cl)cc3)cc2)cc1 [Compound I-2546] | 0.006 µM
COCCn1c(=O)[nH]/c(=N\c2ccc(Oc3cncc(C(=O)O)c3)cc2)n(Cc2ccc(Cl)cc2)c1=O [Compound I-2547] | 0.008 µM
COCCn1c(=O)[nH]/c(=N\c2ccc(Oc3cccc(C(=O)O)n3)cc2)n(Cc2ccc(Cl)cc2)c1=O [Compound I-2548] | 0.006 µM
CCOC(=O)CNc1cc(Oc2ccc(/N=c3\[nH]c(=O)n(CC)c(=O)n3Cc3ccc(Cl)cc3)cc2)ccn1 [Compound I-2549] | 0.012 µM
CCOC(=O)CCn1c(=O)[nH]/c(=N\c2ccc(Oc3ncccn3)cc2)n(Cc2ccc(Cl)cc2)c1=O [Compound I-2550] | 0.004 µM
COC(=O)CCn1c(=O)[nH]/c(=N\c2ccc(Oc3ncccn3)cc2)n(Cc2ccc(C)cc2)c1=O [Compound I-2551] | 0.004 µM
COCCn1c(=O)[nH]/c(=N\c2ccc(Oc3ccnc(C(=O)O)c3)cc2)n(Cc2ccc(Cl)cc2)c1=O [Compound I-2552] | 0.005 µM
CCn1c(=O)[nH]/c(=N\c2ccc(Oc3cccc(C(=O)O)n3)cc2)n(Cc2ncc(Cl)cn2)c1=O [Compound I-2553] | 0.216 µM
CCn1c(=O)[nH]/c(=N\c2ccc(Oc3ccnc(NCC(N)=O)c3)cc2)n(Cc2ccc(Cl)cc2)c1=O [Compound I-2554] | 0.007 µM
CCn1c(=O)[nH]/c(=N\c2ccc(Oc3ccnc(NCC(=O)NC)c3)cc2)n(Cc2ccc(Cl)cc2)c1=O [Compound I-2555] | 0.016 µM
CCn1c(=O)[nH]/c(=N\c2ccc(Oc3ccnc(NCC(=O)O)c3)cc2)n(Cc2ccc(Cl)cc2)c1=O [Compound I-2556] | 0.005 µM
O=C(O)CCn1c(=O)[nH]/c(=N\c2ccc(Oc3ncccn3)cc2)n(Cc2ccc(Cl)cc2)c1=O [Compound I-2557] | 0.019 µM
Cc1ccc(Cn2c(=O)n(CCC(=O)O)c(=O)[nH]/c2=N\c2ccc(Oc3ncccn3)cc2)cc1 [Compound I-2558] | 0.022 µM
NC(=O)c1ccc(Oc2ccc(/N=c3\[nH]c(=O)n(CCO)c(=O)n3Cc3ccc(Cl)cc3)cc2)cc1 [Compound I-2559] | 0.008 µM

Structure (SMILES) | IC50
N#Cc1ccc(Oc2ccc(/N=c3\[nH]c(=O)n(C[C@@H](O)CO)c(=O)n3Cc3ccc(Cl)cc3)cc2)cc1 [Compound I-2560] | 0.005 µM
CCOC(=O)Cn1c(=O)[nH]/c(=N\c2ccc(Oc3cccc(F)n3)cc2)n(Cc2ccc(Cl)cc2)c1=O [Compound I-2562] | 0.004 µM
O=c1[nH]/c(=N\c2ccc(Oc3ccsn3)cc2)n(Cc2ccc(Cl)cc2)c(=O)n1CCO [Compound I-2563] | 0.015 µM
O=C(O)Cn1c(=O)[nH]/c(=N\c2ccc(Oc3cccc(F)n3)cc2)n(Cc2ccc(Cl)cc2)c1=O [Compound I-2564] | 0.269 µM
NC(=O)CCn1c(=O)[nH]/c(=N\c2ccc(Oc3ncccn3)cc2)n(Cc2ccc(Cl)cc2)c1=O [Compound I-2565] | 0.017 µM
Cc1ccc(Cn2c(=O)n(CCC(N)=O)c(=O)[nH]/c2=N\c2ccc(Oc3ncccn3)cc2)cc1 [Compound I-2566] | 0.017 µM
CCn1c(=O)[nH]/c(=N\c2ccc(Oc3ncc(C(=O)O)s3)cc2)n(Cc2ccc(F)cc2)c1=O [Compound I-2567] | 0.038 µM
CCn1c(=O)[nH]/c(=N\c2ccc(Oc3nc(C(=O)O)cs3)cc2)n(Cc2ccc(F)cc2)c1=O [Compound I-2568] | 0.087 µM
CCn1c(=O)[nH]/c(=N\c2ccc(Nc3ccncc3)cc2)n(Cc2ccc(C)cc2)c1=O [Compound I-2569] | 0.162 µM
CCOC(=O)Cn1c(=O)[nH]/c(=N\c2ccc(Oc3nc(C)ns3)cc2)n(Cc2ccc(Cl)cc2)c1=O [Compound I-2570] | 0.005 µM
Cc1nsc(Oc2ccc(/N=c3\[nH]c(=O)n(CC(C)(CO)CO)c(=O)n3Cc3ccc(F)cc3)cc2)n1 [Compound I-2571] | 0.007 µM
CCn1c(=O)[nH]/c(=N\c2ccc(Oc3ccncc3)cc2)n(Cc2ccc(C)cc2)c1=O [Compound I-2573] | 0.006 µM
CC(CO)(CO)Cn1c(=O)[nH]/c(=N\c2ccc(Oc3ccon3)c(F)c2)n(Cc2ccc(F)cc2)c1=O [Compound I-2574] | 0.011 µM
Cc1nsc(Oc2ccc(/N=c3\[nH]c(=O)n(CCO)c(=O)n3Cc3ccc(Cl)cc3)cc2)n1 [Compound I-2575] | 0.006 µM
Cc1nsc(Oc2ccc(/N=c3\[nH]c(=O)n(CC(C)(CO)CO)c(=O)n3Cc3ccc(Cl)cc3)cc2)n1 [Compound I-2576] | 0.003 µM
Cc1nsc(Oc2ccc(/N=c3\[nH]c(=O)n(C[C@@H](O)CO)c(=O)n3Cc3ccc(Cl)cc3)cc2)n1 [Compound I-2577] | 0.008 µM
CCOC(=O)Cn1c(=O)[nH]/c(=N\c2ccc(Oc3ccon3)c(F)c2)n(Cc2ccc(Cl)cc2)c1=O [Compound I-2578] | 0.006 µM
Cc1nsc(Oc2ccc(/N=c3\[nH]c(=O)n(CC(=O)O)c(=O)n3Cc3ccc(Cl)cc3)cc2)n1 [Compound I-2579] | 0.071 µM
O=C(O)Cn1c(=O)[nH]/c(=N\c2ccc(Oc3ccon3)c(F)c2)n(Cc2ccc(Cl)cc2)c1=O [Compound I-2580] | 0.204 µM
CNC(=O)Cn1c(=O)[nH]/c(=N\c2ccc(Oc3nc(C)ns3)cc2)n(Cc2ccc(Cl)cc2)c1=O [Compound I-2581] | 0.005 µM
O=c1[nH]/c(=N\c2ccc(Oc3cccc(F)n3)cc2)n(Cc2ccc(Cl)cc2)c(=O)n1CC(CO)CO [Compound I-2582] | 0.003 µM
O=c1[nH]/c(=N\c2ccc(Oc3cccc(F)n3)cc2)n(Cc2ccc(F)cc2)c(=O)n1CC(CO)CO [Compound I-2583] | 0.015 µM
NC(=O)Cn1c(=O)[nH]/c(=N\c2ccc(Oc3cccc(F)n3)cc2)n(Cc2ccc(Cl)cc2)c1=O [Compound I-2584] | 0.008 µM

Structure (SMILES) | IC50
CNC(=O)Cn1c(=O)[nH]/c(=N\c2ccc(Oc3cccc(F)n3)cc2)n(Cc2ccc(Cl)cc2)c1=O [Compound I-2585] | 0.008 µM
NC(=O)Cn1c(=O)[nH]/c(=N\c2ccc(Oc3ccon3)c(F)c2)n(Cc2ccc(Cl)cc2)c1=O [Compound I-2586] | 0.007 µM
CNC(=O)Cn1c(=O)[nH]/c(=N\c2ccc(Oc3ccon3)c(F)c2)n(Cc2ccc(Cl)cc2)c1=O [Compound I-2587] | 0.007 µM
CCn1c(=O)[nH]/c(=N\c2ccc(Oc3ccnc(NCCO)c3)cc2)n(Cc2ccc(Cl)cc2)c1=O [Compound I-2588] | 0.011 µM
Cc1nsc(Oc2ccc(/N=c3\[nH]c(=O)n(CC(N)=O)c(=O)n3Cc3ccc(Cl)cc3)cc2)n1 [Compound I-2589] | 0.006 µM
CNC(=O)Cn1c(=O)[nH]/c(=N\c2ccc(Oc3ccon3)cc2)n(Cc2ccc(Cl)cc2)c1=O [Compound I-2590] | 0.017 µM
CCn1c(=O)[nH]/c(=N\c2cccc(Oc3cccc(C#N)n3)c2)n(Cc2ccc(Cl)cc2)c1=O [Compound I-2591] | 0.051 µM
CCn1c(=O)[nH]/c(=N\c2cccc(Oc3cccc(C(=O)O)n3)c2)n(Cc2ccc(Cl)cc2)c1=O [Compound I-2592] | 0.35 µM
CCn1c(=O)[nH]/c(=N\c2ccc(Oc3cccc(C(=O)NC#N)n3)cc2)n(Cc2ccc(Cl)cc2)c1=O [Compound I-2593] | 0.001 µM
O=c1[nH]/c(=N\c2ccc(Oc3noc(C4CC4)n3)cc2)n(Cc2ccc(Cl)cc2)c(=O)n1CC(CO)CO [Compound I-2595] | 0.027 µM
O=c1[nH]/c(=N\c2ccc(Oc3noc(C4CC4)n3)cc2)n(Cc2ccc(Cl)cc2)c(=O)n1C[C@H](O)CO [Compound I-2596] | 0.051 µM
CCn1c(=O)[nH]/c(=N\c2ccc(Sc3ccc(C(=O)OC)cc3)cc2)n(Cc2ccc(Cl)cc2)c1=O [Compound I-2597] | 0.215 µM
CCn1c(=O)[nH]/c(=N\c2ccc(Sc3nc[nH]n3)cc2)n(Cc2ccc(Cl)cc2)c1=O [Compound I-2598] | 0.341 µM
CCn1c(=O)[nH]/c(=N\c2ccc(Oc3ccnnc3)cc2)n(Cc2ccc(C)cc2)c1=O [Compound I-2599] | 0.004 µM
CCn1c(=O)[nH]/c(=N\c2ccc(Oc3ccnnc3)cc2)n(Cc2ccc(Cl)cc2)c1=O [Compound I-2600] | 0.004 µM
CCn1c(=O)[nH]/c(=N\c2ccc(Oc3ccc(C#N)nn3)cc2)n(Cc2ccc(Cl)cc2)c1=O [Compound I-2601] | 0.012 µM
CCn1c(=O)[nH]/c(=N\c2ccc(Oc3cccc(-c4nnn[nH]4)n3)cc2)n(Cc2ccc(Cl)cc2)c1=O [Compound I-2602] | 0.002 µM
CCn1c(=O)[nH]/c(=N\c2ccc(Sc3ccc(C(=O)O)cc3)cc2)n(Cc2ccc(Cl)cc2)c1=O [Compound I-2603] | 0.125 µM
N#CNC(=O)Cn1c(=O)[nH]/c(=N\c2ccc(Oc3ccon3)cc2)n(Cc2ccc(Cl)cc2)c1=O [Compound I-2604] | 0.021 µM
Cc1nsc(Oc2ccc(/N=c3\[nH]c(=O)n(CC(CO)CO)c(=O)n3Cc3ccc(F)cc3)cc2)n1 [Compound I-2605] | 0.014 µM
Cc1nsc(Oc2ccc(/N=c3\[nH]c(=O)n(CCCO)c(=O)n3Cc3ccc(F)cc3)cc2)n1 [Compound I-2606] | 0.014 µM
